Measurements published in publication PMC7603469, “The biologically functional identification of a novel TIM3-binding peptide P26 in vitro and in vivo” (Cancer Chemotherapy and Pharmacology, 2020).
Where a SMILES comes first, the peptide text is derived from it.

Legend:
[1] = system: MC38-hPD-L1 tumor; test: Tumor growth assay, MC38-hPD-L1 tumor-bearing B-hTIM-3 humanized mice; format: in vivo, mouse; conditions: P26 5 mg/kg/d, ATE 10 mg/kg/4d, n = 7
Experimental: C57BL/6 mice transgenic for B-hHAVCR2 (TIM3) (Biocytogen, Beijing, China) were used to evaluate the anti-tumor activity of P26 in vivo. After 1 week of adaptive feeding, 6-week-old female mice were inoculated with 0.1 mL of MC38-hPD-L1 cells (1 × 10^6 cells) by subcutaneous injection on the right scapula followed by the measurements of tumor volume and body weight. When the average tumor volume reached about 80 mm^3, mice were randomly divided into […] groups and administrated with different drugs: (A) PBS (control), (B) ATE (PD-L1 inhibitor Atezolizumab, 10 mg/kg/4d, as the positive group), (C) P26 (5 mg/kg/d), and (D) P26 (5 mg/kg/d) plus ATE (10 mg/kg/4d). The weight and tumor volume of the mice were measured twice a week. When the body weight loss (% BWL) was above 20%, the drug was discontinued, and then, ethically acceptable execution to mice was adopted upon the failure of weight loss recovery in 72 h. The weight and volume of tumors were then analyzed.

[2] = biological target: T1, TIM3 (Mus musculus, UniProt Q8VIM0); test: SPR binding, TIM3 immobilized on chip; conditions: TIM3 50 μg/mL immobilized on nanogold sensor chip (EDC/NHS), flow rate 20 μL/min for about 7 min, read-out: affinity constant (KD)
T1 construct: purchased Chimerigen CHI-MF-210T3-C050
Experimental: Surface plasmon resonance (SPR) assay. The affinity identification between P26 and TIM3 was performed by immobilizing the TIM3 protein (50 μg/mL) on the surface of the nanogold sensor chip after the chip was activated by EDC/NHS. P26/Gal-9 competition assay was performed by immobilizing Gal-9 protein (25 µg/mL) on the sensor chip. Each sample was injected at a flow rate of 20 μL/min for about 7 min. KD, ka, and kd were calculated by Trace Drawer Evaluation (version 2.0).

T1 sequence (Q8VIM0 20-193 limits assumed): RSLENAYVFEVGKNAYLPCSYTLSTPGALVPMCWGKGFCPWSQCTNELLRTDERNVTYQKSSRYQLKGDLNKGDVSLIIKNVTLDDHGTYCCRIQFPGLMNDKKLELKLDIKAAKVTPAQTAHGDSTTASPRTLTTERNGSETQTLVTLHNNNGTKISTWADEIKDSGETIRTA

| Compound | inhibition of MC38-hPD-L1 tumor growth vs solvent control (in words) ([1]; tumor nodules on day 36, Fig. 4b, c) | tumor volume inhibition rate ([1]; vs PBS control, start day 10, sacrificed day 36, Fig. 4d) [%] | Kd [2] [µM] |
| --- | --- | --- | --- |
| ATE: PD-L1 inhibitor Atezolizumab, positive group | significantly inhibit the growth | 43.71 | – |
| CC[C@H](C)[C@H](NC(=O)[C@H](Cc1c[nH]cn1)NC(=O)[C@H](CCSC)NC(=O)[C@@H](NC(=O)[C@@H](NC(=O)[C@H](CC(C)C)NC(=O)[C@@H]1CCCN1C(=O)[C@@H](NC(=O)[C@H](CC(C)C)NC(=O)CN)[C@@H](C)CC)[C@@H](C)O)[C@@H](C)O)C(=O)NCC(=O)N[C@@H](CCCCN)C(=O)O [Peptide P26] (H-GLIPLTTMHIGK-OH) | – | – | 34.4 |
